Results published in US20200016097A1, “Methods for Preventing and Treating Radiation-Induced Epithelial Disorders” (priority 2009, published 2020).

Tested on: IEC-18 cells
Experiment: Repair of mechanically wounded IEC-18 monolayers
Format: cell-based, rat
Conditions: 5% PEG 15-20, 50 ng/ml EGF; after 24 hours
Method: In order to assess the ability of HMW PEG to induce the repair of epithelial monolayers following injury, IEC-18 cells were grown to confluency in 60 mm dishes, rinsed then the monolayer was mechanically wounded using a razor blade. Detached cells were removed and fresh medium containing 5% PEG 15-20, 50 ng/ml Epidermal Growth Factor (EGF) or a combination of both was added. The cells were maintained in the presence of treatment for 24 hours or were treated for 2 minutes, washed then incubated without treatment for 24 hours. Wound healing was assessed by the decrease in the length of the wound after 24 hours.

Substance: EGF: Epidermal Growth Factor, 50 ng/ml (NSDSECPLSHDGYCLHDGVCMYIEALDKYACNCVVGYIGERCQYRDLKWWELR; UniProt P01133 971-1023, looked up)
- wound healing (decrease in the length of the wound): induced wound healing
